# Data as given in US20090221559A1 (priority 2005, published 2009).
# pEC50, pIC50: −log10 of the molar value. Where two headings read alike, the source gives them in different places.
# Key:
# [1] = target: T1, HCV NS5B polymerase (His-tagged, C-terminal 21 amino acid deleted NS5B, HC-J4) (Hepatitis C virus genotype 1b, UniProt O92972); experiment: NS5b polymerase assay (biochemical RdRp assay, 3H-GTP incorporation, SPA beads); set-up: species or system HCV genotype 1b; details: for pIC50: 3H-GTP incorporation, 2 h at 25° C.; for IC50: NS5B Polymerase Assay IC50 (μM)
# T1 construct: The cDNA encoding NS5B amino acid 1-570 (HC-J4, genotype 1b); His tag (His6, from pET-21b) (C); made in house; host or cells: E. coli BL21 (DE3)
# Outline: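 His-tagged C-terminal-21-aa-deleted NS5B (genotype 1b, HC-J4) at 200 nM was preincubated 15 min at RT with compound on 5′-biotinylated oligo(rG13)/poly(rC) template/primer before NTPs. Reaction with 600 nM GTP plus 0.1 μCi 3H-GTP and 5 mM MgCl2 in Tris pH 7.5 ran 2 h at 25 °C. Stopped with EDTA/SPA beads for incorporation counting.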
# [2] = tested on: HCV replicon RNA replication in Huh-7 luc/neo (Huh-Luc) cells; experiment: HCV replicon assay (stable replicon cell reporter assay, luciferase read-out); type: cell-based, HCV type 1b; details: for EC50: read-out: Replicon Assay EC50 (μM), Huh-Luc cells, incubation of three days, luciferase activity
# Outline: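 Huh-7 cells stably carry a bicistronic HCV 1b NS3-NS5B subgenomic replicon with firefly luciferase and neo markers. Cells were plated with compound across a concentration range and incubated three days. Replication was measured as luciferase activity to give dose-response curves.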
# [3] = NS5B Polymerase Assay IC50, 200 nM enzyme
# [4] = Hepatitis C virus, Huh-7, 72 h, read-out: Replicon Assay EC50, Huh-Luc cells, three days incubation, luciferase activity
# [5] = 200 nM enzyme, read-out: NS5B Polymerase Assay IC50
# [6] = Huh-Luc cells, three days incubation, luciferase activity, read-out: Replicon Assay EC50
# T1 sequence (O92972 2417-3000, looked up, stated change not applied): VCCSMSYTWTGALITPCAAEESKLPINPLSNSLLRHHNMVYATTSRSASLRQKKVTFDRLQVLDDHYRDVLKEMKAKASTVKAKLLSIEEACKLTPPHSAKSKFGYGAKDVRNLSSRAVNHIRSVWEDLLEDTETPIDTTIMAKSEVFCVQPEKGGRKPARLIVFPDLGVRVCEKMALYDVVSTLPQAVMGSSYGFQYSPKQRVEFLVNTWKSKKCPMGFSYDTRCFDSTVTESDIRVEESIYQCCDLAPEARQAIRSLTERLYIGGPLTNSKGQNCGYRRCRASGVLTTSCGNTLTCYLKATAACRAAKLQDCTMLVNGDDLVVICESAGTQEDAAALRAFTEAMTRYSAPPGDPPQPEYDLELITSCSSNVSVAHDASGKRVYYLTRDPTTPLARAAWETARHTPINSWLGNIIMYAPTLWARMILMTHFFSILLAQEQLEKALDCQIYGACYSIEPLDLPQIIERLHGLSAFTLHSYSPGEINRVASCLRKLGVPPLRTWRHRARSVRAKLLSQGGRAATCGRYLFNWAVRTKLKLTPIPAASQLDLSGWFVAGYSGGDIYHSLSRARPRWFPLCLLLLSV
SMILES,"pIC50 [1, 3]","pEC50 [2, 4]",IC50 [1] [µM],"EC50 ([2]; Hepatitis C virus, Huh-7, 72 h) [µM]",also measured
CC(=O)N1c2ccccc2NC2=C(C(=O)CC(C)(C)C2)C1c1cccc(Oc2ccccc2)c1 (stereo not drawn) [compound 135],4.26,5.61,,,
COc1ccc([C@@H]2CC(=O)C3=C(C2)Nc2ccccc2N[C@H]3c2cc3c(cc2[N+](=O)[O-])OCO3)cc1 [compound 485],,,> 42.7,3.39,
COc1ccc(C2CC(=O)C3=C(C2)Nc2ccccc2N(C(C)=O)C3c2ccco2)cc1 (stereo not drawn) [compound 298],,,,,"pIC50 [1, 5]: < 4.37; pEC50 [2, 6]: < 4.49"
CCCOc1cccc(C2C3=C(CC(C)(C)CC3=O)Nc3ccccc3N2C(C)=O)c1 (stereo not drawn) [compound 123],< 4.37,< 4.49,,,
CCCCC(=O)N1c2ccccc2NC2=C(C(=O)CC(C)(C)C2)C1c1ccc(OC)cc1OC (stereo not drawn) [compound 1],< 4.37,5.07,,,
COc1ccc(C2CC(=O)C3=C(C2)Nc2ccccc2NC3c2cc(Br)c(O)c(OC)c2)cc1OC (stereo not drawn) [compound 397],,,> 42.7,6.13,
CC1(C)CC(=O)C2=C(C1)Nc1ccccc1N(C(=O)C1CC1)C2c1cccs1 (stereo not drawn) [compound 252],< 4.37,5.32,,,
CCOc1cccc(C2Nc3ccccc3NC3=C2C(=O)CC(c2ccc(Cl)cc2)C3)c1 (stereo not drawn) [compound 379],,,> 42.7,6.79,
CC(=O)N1c2ccccc2NC2=C(C(=O)CC(C)(C)C2)C1c1cccc(Cl)c1Cl (stereo not drawn) [compound 29],< 4.37,5.17,,,
"CC1(C)CC(=O)C2=C(C1)Nc1ccccc1NC2c1c(Cl)cc(OCc2ccccc2)cc1Cl (stereo not drawn) [compound 447, 11-(4-benzyloxy-2,6-dichlorophenyl)-3,3-dimethyl-2,3,4,5,10,11-hexahydro-1H-dibenzo[b,e][1,4]diazepin-1-one]",,,> 133,2.52,
COc1ccc(C2CC(=O)C3=C(C2)Nc2ccccc2N(C(=O)C(F)(F)F)C3c2ccc(C)cc2)cc1 (mixture of isomers) [compound 196],,,,,"pIC50 [1, 5]: < 4.48; pEC50 [2, 6]: 5.14"
CC1(C)CC(=O)C2=C(C1)Nc1ccccc1N(C(=O)C(F)(F)F)C2c1ccc(-c2ccc([N+](=O)[O-])cc2)o1 (stereo not drawn) [compound 257],< 4.37,4.65,,,
"CC(=O)N1c2ccccc2NC2=C(C(=O)CC(C)(C)C2)C1c1ccc(O)cc1 (stereo not drawn) [compound 137, 10-acetyl-11-(4-hydroxyphenyl)-3,3-dimethyl-2,3,4,5,10,11-hexahydro-1H-dibenzo[b,e][1,4]diazepin-1-one]",< 3.88,< 4.00,,,
"CC(=O)N1c2ccccc2NC2=C(C(=O)CC(C)(C)C2)[C@H]1c1ccc(OCc2ccccc2)cc1 (single isomer, unassigned) [compound 301]",5.82,4.82,,,
COc1cc(C2Nc3ccccc3NC3=C2C(=O)CC(c2ccc(Cl)cc2)C3)cc(Br)c1O (stereo not drawn) [compound 342],,,> 42.7,4.19,
CCOc1cc(C2Nc3ccccc3NC3=C2C(=O)CC(c2ccc(OC)cc2)C3)ccc1OC(C)=O (stereo not drawn) [compound 386],,,> 42.7,> 29.6,
CC(=O)N1c2ccccc2NC2=C(C(=O)CC(c3cccc([N+](=O)[O-])c3)C2)C1c1ccccc1 (stereo not drawn) [compound 234],,,,,"pIC50 [1, 5]: < 4.44; pEC50 [2, 6]: 5.41"
CCC(=O)N1c2ccccc2NC2=C(C(=O)CC(C)(C)C2)C1c1c(Cl)cccc1Cl (stereo not drawn) [compound 46],< 4.37,4.95,,,
COc1ccc(C2CC(=O)C3=C(C2)Nc2ccccc2NC3c2cc(OC)ccc2OC)cc1 (stereo not drawn) [compound 336],,,> 42.7,13.8,
COc1ccc(C2CC(=O)C3=C(C2)Nc2ccccc2NC3c2ccc(Cl)c([N+](=O)[O-])c2)cc1 (stereo not drawn) [compound 389],,,> 42.7,5.58,
CC(C)Oc1ccc(C2C3=C(CC(C)(C)CC3=O)Nc3ccccc3N2C(=O)C(F)(F)F)cc1 (stereo not drawn) [compound 100],< 4.37,5.44,,,

SMILES,"pIC50 [1, 3]","pEC50 [2, 4]",IC50 [1] [µM],"EC50 ([2]; Hepatitis C virus, Huh-7, 72 h) [µM]",also measured
CCC(=O)N1c2ccccc2NC2=C(C(=O)CC(C)(C)C2)C1c1ccc(Cl)cc1 (stereo not drawn) [compound 54],< 4.37,4.65,,,
CC1(C)CC(=O)C2=C(C1)Nc1ccccc1N(C(=O)C(F)(F)F)C2c1ccc(OCc2ccccc2)cc1 (stereo not drawn) [compound 52],< 4.37,5.13,,,
CCCCCC(=O)N1c2ccccc2NC2=C(C(=O)CC(C)(C)C2)C1c1ccccc1OC(C)CC (stereo not drawn) [compound 93],< 4.37,5.39,,,
CC(C)CC(=O)N1c2ccccc2NC2=C(C(=O)CC(C)(C)C2)C1c1c(F)cccc1Cl (stereo not drawn) [compound 43],< 4.37,5.04,,,
CCCOc1ccccc1C1C2=C(CC(C)(C)CC2=O)Nc2ccccc2N1C(=O)CC (stereo not drawn) [compound 63],< 4.37,5.30,,,
COc1ccc(C2CC(=O)C3=C(C2)Nc2ccccc2NC3c2cc(OC)c(OC)cc2OC)cc1 (stereo not drawn) [compound 398],,,> 42.7,10.9,
O=C1CC(c2cccc([N+](=O)[O-])c2)CC2=C1C(c1ccco1)N(C(=O)C(F)(F)F)c1ccccc1N2 (stereo not drawn) [compound 296],< 4.37,4.74,,,
O=C1C[C@@H](c2ccccc2)CC2=C1[C@H](c1cc3c(cc1Br)OCO3)Nc1ccccc1N2 [compound 481],,,> 42.7,1.61,
COc1ccc(C2CC(=O)C3=C(C2)Nc2ccccc2N(C(=O)c2ccccc2)C3c2ccc(C)cc2)cc1OC (stereo not drawn) [compound 170],,,,,"pIC50 [1, 5]: < 4.37; pEC50 [2, 6]: 5.43"
COc1ccc(C2CC(=O)C3=C(C2)Nc2ccccc2NC3c2cccc(O)c2)cc1 (stereo not drawn) [compound 392],,,> 42.7,22.6,
COc1ccc(C2CC(=O)C3=C(C2)Nc2ccccc2NC3c2cccc(Cl)c2Cl)cc1 (stereo not drawn) [compound 357],,,> 42.7,7.01,
CC1(C)CC(=O)C2=C(C1)Nc1ccccc1N(C(=O)c1ccccc1)C2c1c(F)cccc1Cl (stereo not drawn) [compound 37],< 4.37,5.16,,,
COc1ccc([C@@H]2CC(=O)C3=C(C2)Nc2ccccc2N[C@H]3c2cccc3ccccc23)cc1OC [compound 496],,,> 42.7,22.9,
CC(=O)N1c2ccccc2NC2=C(C(=O)CC(C)(C)C2)C1c1ccc(-c2cccc([N+](=O)[O-])c2)o1 (stereo not drawn) [compound 250],< 4.37,5.10,,,
COc1ccc(C2C3=C(CC(C)(C)CC3=O)Nc3ccccc3N2C(C)=O)cc1OC (stereo not drawn) [compound 119],< 4.37,< 4.49,,,
COc1cccc(C2Nc3ccccc3NC3=C2C(=O)CC(c2ccc(Cl)cc2)C3)c1 (stereo not drawn) [compound 360],,,> 42.7,11.2,
COc1ccc(C2CC(=O)C3=C(C2)Nc2ccccc2NC3c2cc([N+](=O)[O-])ccc2Cl)cc1 (stereo not drawn) [compound 375],,,> 42.7,19.9,
COc1ccccc1C1C2=C(CC(C)(C)CC2=O)Nc2ccccc2N1C(C)=O (stereo not drawn) [compound 128],< 4.37,< 4.49,,,
CC1(C)CC(=O)C2=C(C1)Nc1ccccc1N(C(=O)c1ccc(F)cc1)C2c1ccc(Br)cc1 (stereo not drawn) [compound 113],< 4.37,< 4.49,,,
"CC1(C)CC(=O)C2=C(C1)Nc1ccccc1NC2c1cc(Cl)c(OCc2ccccc2)c(Cl)c1 (stereo not drawn) [compound 444, 11-[4-benzyloxy-3,5-dichlorophenyl]-3,3-dimethyl-2,3,4,5,10,11-hexahydro-1H-dibenzo[b,e][1,4]diazepin-1-one]",,,33.2,4.45,
COc1c(Cl)cc(Cl)cc1C1C2=C(CC(C)(C)CC2=O)Nc2ccccc2N1C(=O)Cc1ccccc1 (stereo not drawn) [compound 15],< 4.37,5.51,,,
